Laboratory results taken from patent US9409904B2, “Compounds and compositions for use in augmentation of glucose” (YISSUM RESEARCH DEVELOPMENT COMPANY OF THE HEBREW …, priority 2011, dated 2016).
“Also recorded” adds a separate entry of the source. Where two headings read alike, the source gives them in different places.

Tests used:
L6 myotubes [1] = assay: [3H]-2-deoxy-D-glucose (dGlc) uptake assay in L6 myotubes; format: cell-based
Description: The effect of the various derivatives on the rate of glucose uptake in L6 myotubes was investigated. […] The abundance of GLUT1 and GLUT4 in the plasma membranes of L6 myotubes was determined in cells expressing GLUT-1myc or GLUT-4myc, as described before. […] In addition, the effect of compounds on the glucose—stimulated insulin secretion (GSIS) was investigated.
L6 myotubes were maintained as described in [21]. All experiments were conducted on fully differentiated myotubes.
The rate of [^3H]dGlc uptake in myotubes, in the absence or presence of insulin, was determined as described in [21]. […] […] The cultures were then rinsed 3 times with PBS at room temperature and incubated with PBS, pH 7.4, containing 0.1 mM dGlc and 1.0 μCi/ml [^3H]dGlc for 5 minutes at room temperature. At the end of the assay, the myotubes were lysed in 0.1% (w/v) SDS in water and taken for liquid scintillation.

AMPK = assay: Thr172 phosphorylation of AMPK in L6 myotubes, Western blot of whole cell lysates; format: cell-based
Description: The effect of the various derivatives on the rate of glucose uptake in L6 myotubes was investigated. […] The abundance of GLUT1 and GLUT4 in the plasma membranes of L6 myotubes was determined in cells expressing GLUT-1myc or GLUT-4myc, as described before. […] In addition, the effect of compounds on the glucose—stimulated insulin secretion (GSIS) was investigated. Whole cell lysates were prepared as previously described with some minor modifications: the lysis buffer contained 50 mM Tris-HCl, pH 7.5, 1 mM EDTA, 1 mM EGTA, 1 mM Na3VO4, 150 mM NaCl, 50 mM NaF, 10 mM sodium-glycerophosphate, 5 mM sodium pyrophosphate, and 1 mM PMSF, supplemented with 0.1% (v/v) NP-40, 0.1% (v/v) 2-β-mercaptoethanol, and protease inhibitor cocktail (1:100 dilution). The cells were washed by ice-cold PBS, and 1 ml of lysis buffer was then added and incubated at 4° C. for 40 minutes. The resulting cell lysates were centrifuged at 8,700 g×30 minutes at 4° C. and the resulting supernatant fractions were separated and kept at −20° C. until used. Protein content in the supernatant was determined according to Bradford, using a BSA standard dissolved in the same buffer. […] Samples for Western blot analyses of GLUT1 and GLUT4 were prepared as described in [22]. The proteins were separated on 10% SDS-PAGE and Western blot analyses performed using antibodies according to our previously established protocols.

L6 myotubes [2] = assay: Cytotoxic effects in L6 myotube cultures; format: cell-based; conditions: above 100 μM
INS-1E cells = assay: Glucose-stimulated insulin secretion (GSIS) from INS-1E cells, insulin RIA; format: cell-based
Description: INS-1E cells (passages 70-90) were grown and maintained as described in Merglen A et al. Endocrinology 2004, 145:667-678.
To investigate the glucose—stimulated insulin secretion (GSIS) and insulin radioimmunoassay-confluent cultures of INS-1E cells were pre-incubated for 30 min in KRBH-BSA buffer containing 3.3 mM glucose. This was followed by 1-h incubation at 3.3 and an additional 1-h at 16.7 mM glucose, as described (1). Aliquots from the incubation buffers were collected, cleared by centrifugation and frozen until used for insulin RIA. Total insulin content in β-cells was similarly measured in aliquots of cell extracts (1). RIA kits rat insulin (Linco Research, St. Charles, Mo.) was used according to manufacturers' protocols.

GLUT4myc = assay: Colorimetric determination of surface GLUT4myc in L6 myotubes; format: cell-based; conditions: for abundance of GLUT4myc in the plasma membrane: 25 μM of 34, insulin
Description: The colorimetric detection of surface GLUT4myc or GLUT1myc in L6 myotubes was performed as described in [7]. Briefly, cultured myotubes were incubated with rabbit anti-C-Myc antibody (1:200 dilution), washed and fixed with 3% formaldehyde, and further interacted with goat HRP-conjugated anti-rabbit IgG (1:2000 dilution). Following the washes, a solution of OPD was added, and the culture plates were taken for absorbance measurement at 492 nM to estimate the relative abundance of GLUT1myc or GLUT4myc on the plasma membrane of the myotubes. The GLUT1myc and GLUT4myc L6 cell cultures were the courtesy of Dr. A. Klip, Hospital for Sick Children (Toronto, ON, Canada).
The capacity of compound 34 to increase the rate of glucose uptake by increasing GLUT4 content in the plasma membrane of myotubes was tested. […] The cells expressing GLUT1myc or GLUT4myc were treated with 25 μM of 34 or DMSO as described above. At the end of the incubation, the cultures were taken for immunodetection of surface GLUT1myc (open bars) or GLUT4myc (black bars), as described herein above.

GLUT1 = assay: Total GLUT1 content in whole cell lysates of L6 myotubes, Western blot; format: cell-based
Description: (§1) Whole cell lysates were prepared as previously described with some minor modifications: the lysis buffer contained 50 mM Tris-HCl, pH 7.5, 1 mM EDTA, 1 mM EGTA, 1 mM Na3VO4, 150 mM NaCl, 50 mM NaF, 10 mM sodium-glycerophosphate, 5 mM sodium pyrophosphate, and 1 mM PMSF, supplemented with 0.1% (v/v) NP-40, 0.1% (v/v) 2-β-mercaptoethanol, and protease inhibitor cocktail (1:100 dilution). The cells were washed by ice-cold PBS, and 1 ml of lysis buffer was then added and incubated at 4° C. for 40 minutes. The resulting cell lysates were centrifuged at 8,700 g×30 minutes at 4° C. and the resulting supernatant fractions were separated and kept at −20° C. until used. Protein content in the supernatant was determined according to Bradford, using a BSA standard dissolved in the same buffer. Aliquots (5-60 μg of protein) were mixed with the sample buffer [62.5 mM Tris-HCl, pH 6.8, 2% (w/v) SDS, 10% (v/v) glycerol, 50 mM DTT, and 0.01% (w/v) bromophenol blue], heated at 95° C. for 5 minutes. Samples for Western blot analyses of GLUT1 and GLUT4 were prepared as described in [22]. The proteins were separated on 10% SDS-PAGE and Western blot analyses performed using antibodies according to our previously established protocols.

GLUT4 = assay: Total GLUT4 content in whole cell lysates of L6 myotubes, Western blot; format: cell-based
Description: as §1

diabetic KKAy mice [3] = assay: Blood glucose level in diabetic KKAy mice after subcutaneous injection; format: in vivo; conditions: for reduction of blood glucose: 75 mg/kg s.c. twice daily in sesame oil
From the text: (§2) The effect of the various ethoxybenzo-thiazol derivatives on the blood glucose level in diabetic KKAy mice was investigated. The in vivo antihyperglycemic effect of the lead compound was investigated in hyperglycemic and hyperinsulinemic KKAy mice, an established animal model for T2DM, after subcutaneous injections. Venous blood samples from small tail clips were taken for glucose determination. Finally, to investigate the effect of the lead compound on whole body glucose disposal in the mice we performed standard IP-GTT tests following an overnight fast.
Diabetic male KKAy mice (8 to 12-week old, 20-25 g) were purchased from The Jackson Laboratory (Bar Harbor, Me.). The animals were routinely kept in 12-h light/dark cycles and provided with food and water ad libitum. Blood glucose levels at sacrifice ranged between 17-25 mmol/l. The ethics committee (IACUC) of the Hebrew University of Jerusalem approved the study protocol for animal welfare. The Hebrew University of Jerusalem is an AAALAC international accredited institution.
(§3) The antihyperglycemic potential of 34 was investigated in an animal model of diabetes. Test compound was injected subcutaneously (75 mg per kg body weight, suspension in sesame oil, twice daily) to diabetic KKAy mice; control mice received the vehicle only. The blood glucose levels at day zero, 20.8±0.9 and 22.3±1.3 mM for the control and 34-treated groups, respectively, were taken as the reference 100% values in FIG. 4A. […] It should be noted, however, that despite the marked antihyperglycemic effects of 34, normoglycemia was not reached. To better evaluate the potential of 34, the glucose tolerance of treated KKAy mice was evaluated using a standard IP-GTT. The mice were treated with 34 as described above for two days, after which IP-GTT was performed after an overnight fast, as described. […] IP-GTT was performed following an overnight fast in mice treated with 34 or oil, as described herein above. […] The cells were grown in standard RPMI1640 complete culture medium, treated with 10 μM compound 20 and incubated for the indicate time periods. At the end of incubations the cells were taken for a standard GSIS assay described herein.

diabetic KKAy mice [4] = assay: Intraperitoneal glucose tolerance test (IP-GTT) in KKAy mice; format: in vivo
From the text: as §2
A standard IP-GTT test was performed on mice after an overnight fast. Glucose in saline was injected intraperitoneally (1.5 g/kg body weight). Venous blood samples from small tail clips were taken for glucose determination using a glucometer (FreeStyle Freedom, Abbott Diabetes Care, Alamada, Calif.).
as §3

CCC1SC(N)=NC1=O (stereo not shown) [Compound 3, 2-amino-5-ethylthiazol-4(5H)-one]
rate of glucose uptake in L6 myotubes (result in words) (L6 myotubes [1]): increase; also recorded: augmented | time of maximal glucose uptake stimulatory effect (L6 myotubes [1]; 100 μM): ≤ 5 h | rate of glucose uptake compared to vehicle (DMSO) treated control (L6 myotubes [1]; 100 μM, basal rate = 100%): 131.4%±6.8% | activity at 100 µM (L6 myotubes [1]; Rattus norvegicus, L6, 100 μM, Mean ± SD (n = 3), Table 1, read-out: Effect on glucose uptake [100 μM] in L6 myotubes (%)): 131 ± 6.8% | maximal effective concentration, glucose uptake (L6 myotubes [1]; dose response, 5 h (3) or 12 h (4, 15)): 100 µM | time of return of Thr172 phosphorylation to the basal hypo-phosphorylated level (AMPK; 100 μM): 3 h | Thr172 phosphorylation in AMPK / AMPK activation (result in words) (AMPK; L6 myotubes): increased | time of maximal (peak) Thr172 phosphorylation in AMPK (AMPK; incubation time): 40 min | cytotoxic effects (L6 myotubes [2]): cytotoxic effects

CCCSc1nc2ccc(O)cc2s1 [Compound 20, 2-(propylthio)benzothiazol-6-ol]
rate of glucose uptake in L6 myotubes (result in words) (L6 myotubes [1]): increase | rate of glucose uptake in L6 myotubes (result in words) (L6 myotubes [1]; listed as EMM-45): increases; also recorded: induced an increase; also recorded: induces stimulation | glucose-stimulated insulin secretion from INS-1E cells (result in words) (INS-1E cells): augments | glucose stimulated insulin secretion in INS-1E (INS-1E cells; 10 μM, indicated time periods): increased | glucose-stimulated insulin secretion (INS-1E cells; 25 μM): increased | melting point: 67 to 70 °C

CCOc1ccc2nc(SSc3nc4ccc(OCC)cc4s3)sc2c1 [Compound 31, 1,2-bis(6-ethoxybenzothiazol-2-yl)disulfane]
rate of glucose uptake in L6 myotubes (result in words) (L6 myotubes [1]): increase; also recorded: substantially increased | Emax (L6 myotubes [1]; Rattus norvegicus, L6, 150 μM within 5 hours of incubation, read-out: maximal effect on rate of glucose uptake, compared with a non-treated control): 189 ± 21.8% | rate of glucose uptake in L6 myotubes (result in words) (L6 myotubes [1]; listed as EMM-5): increases | persistence of Thr172 phosphorylation of AMPK (AMPK; incubation time): up to 5 hours | time to induction of Thr172 phosphorylation in AMPK (AMPK; incubation time): ≤ 40 min | glucose-stimulated insulin secretion from INS-1E cells (result in words) (INS-1E cells): increases | melting point: 185 to 190 °C

CCOc1ccc2nc(SCc3nc4ccccc4s3)sc2c1 [Compound 34, 2-((benzothiazol-2-ylmethyl)thio)-6-ethoxybenzothiazole]
minimal effective concentration, glucose uptake (L6 myotubes [1]): 25 µM | persistence of stimulatory effect on glucose uptake (L6 myotubes [1]): up to 24 hours | rate of glucose uptake in L6 myotubes (result in words) (L6 myotubes [1]): increase; also recorded: markedly augmented | stimulatory effect on glucose uptake in the presence of wortmannin or Akt/PKB inhibitor (L6 myotubes [1]; 100 nM wortmannin or 100 nM Akt/PKB inhibitor added 30 min before): PI3K- and Akt/PKB-independent manner; also recorded: remained unaltered | increase of rate of glucose uptake, combined effect with insulin (L6 myotubes [1]; 25 μM of 34 (5 hours) plus insulin 100 nM (last 20 minutes)): 148%±29% | increase of rate of glucose uptake (L6 myotubes [1]; 25 μM of 34, last 5 hours, serum free, 23.0 mM D-glucose, without insulin): 75%±17% | increase of rate of glucose uptake (L6 myotubes [1]; under similar experimental conditions (5 hours)): 2.5 fold | time to significant Thr172 phosphorylation of AMPK (AMPK; incubation time): ≤ 1 h | period required to exert action on GLUT4myc translocation (GLUT4myc): 5 h | abundance of GLUT4myc in the plasma membrane (GLUT4myc): induces GLUT-4; also recorded: increased | total content of GLUT1 in myotubes (GLUT1): Neither compound altered | total content of GLUT4 in myotubes (GLUT4): Neither compound altered | normoglycemia (diabetic KKAy mice [3]; 75 mg/kg s.c. twice daily): not reached | reduction of blood glucose (diabetic KKAy mice [3]; day 1): ~30% | reduction of blood glucose (diabetic KKAy mice [3]; day 2): ~45% | reduction of blood glucose (diabetic KKAy mice [3]; day 3): ~50% | glucose tolerance (result in words) (diabetic KKAy mice [4]; 75 mg/kg s.c. twice daily, two days): improved glucose tolerance; also recorded: significantly improved | IP-GTT area under the curve (AUC) (diabetic KKAy mice [4]; two days of treatment, overnight fast, glucose 1.5 g/kg i.p.): 753.6±142.2 mmol glucose/l/min | improvement of total body glucose clearance (diabetic KKAy mice [4]; two-day treatment): 40%-50%

insulin: Human insulin (Actrapid) purchased from Novo Nordisk [reference compound]
increase of rate of glucose uptake (L6 myotubes [1]; insulin 100 nM, last 20 minutes of incubation): 45%±13% | time of effect on GLUT4myc translocation to the plasma membrane (GLUT4myc): 30 min | abundance of GLUT4myc in the plasma membrane (GLUT4myc): increased | total content of GLUT1 in myotubes (GLUT1): Neither compound altered | total content of GLUT4 in myotubes (GLUT4): Neither compound altered
